# Reference: patent publication US20250154193A1, “STEROID COMPOUND, AND PREPARATION METHOD THEREFOR AND APPLICATION THEREOF” (CHOLESGEN (SHANGHAI) CO., LTD., priority 2022, published 2025)
# System: liver organoids
# Test: Real-time quantitative PCR of lipogenesis- and fibrosis-related genes in fatty liver organoids
# Type: cell-based, mice
# Settings: mouse fatty liver organoids, 1 and 3 μM, 72 hours, qPCR
# Description: Liver samples or liver organoid samples were homogenized in TRI Reagent (T9424, Sigma), and total RNA was extracted according to the manufacturer's instructions. Equal amounts of RNA template were used to synthesize cDNA with oligo dT primers and MLV reverse transcriptase (Promega). Quantitative data for genes were collected using the Bio-Rad CFX96 real-time PCR system, and the relative amount of gene mRNA was quantified using the comparative CT method.
# C57BL/6N mice were fed with fatty liver-inducing diet (TrophicDiet, TP2630052A, containing 10.2% kcal protein, 37.3% kcal carbohydrate, and 52.6% kcal fat) and fructose-containing drinking water (23.1 g of fructose and 18.9 g of dextrose were dissolved in 1 L of water, then filtered and sterilized) for a total of 16 weeks starting at 12 weeks of age to generate a fatty liver model. To generate fatty liver organoids, liver tissues from mice with fatty liver were minced and digested in digestion buffer at 37° C. for 30 to 60 minutes. The digestion buffer included DMEM/F-12 (Cytiva, SH30023.01), 2.5 mg/mL collagenase D (Roche, COLLD-RO), and 0.1 mg/mL DNaseI (Sigma-Aldrich, DN25). […]
# To distinguish whether the inhibitory effect of 25-hydroxylanosterol is directly based on its effect on the liver or a systemic effect, we utilized 3D liver organoids as an in vitro model for the study of fatty liver to analyze the effect of 25-hydroxylanosterol on lipogenesis and fibrosis marker expression in liver organoids. […] RNA from the organoids was collected and analyzed for the differential expression of lipogenesis-related genes (Hmgcs, Hmgcr, SCD1, and FASN) and fibrosis markers (αSMA and Colla1) using fluorescent real-time quantitative PCR.
# In FIGS. 35 and 36, data are represented as mean±standard deviation. P values were calculated using one-way ANOVA; ns indicates no statistical difference; * indicates P<0.05; ** indicates P<0.01; *** indicates P<0.001. In FIGS. 47 and 53, quantitative analysis was performed using ImageJ software. […] P values were calculated using one-way ANOVA; * indicates P<0.05; ** indicates P<0.01; *** indicates P<0.001.
structure (smiles),measurement,value
"C[C@H](CCCC(C)(C)O)[C@H]1CC[C@@]2(C)C3=C(CC[C@]12C)[C@@]1(C)CC[C@H](O)C(C)(C)[C@@H]1CC3 [compound 68, (1R,3aR,5aR,7S,9aS,11aR)-1-[(2R)-6-hydroxy-6-methylheptan-2-yl]-3a,6,6,9a,11a-pentamethyl-2,3,3a,4,5,5a,6,7,8,9,9a,10,11,11a-tetradecahydro-1H-cyclopenta[1,2-a]phenanthren-7-ol]",expression levels of fibrosis-related genes (Col1a1 and αSMA),significantly inhibited
same,"expression levels of lipogenesis-related genes (Hmgcs, Hmgcr, SCD1, and FASN)",significantly inhibited
